# Measurements: ChEMBL document CHEMBL1135849, “Hydroxamate based inhibitors of adenylyl cyclase. Part 1: the effect of acyclic linkers on P-site binding” (Bioorg Med Chem Lett, 2002)
# Target: Adenylate cyclase type 5 (Homo sapiens, UniProt O95622)
# Assay: Inhibition of recombinant human adenylate cyclase 5 expressed in HEK293 cells
# Type: cell-based
# Adenylate cyclase type 5, sequence (O95622 whole entry): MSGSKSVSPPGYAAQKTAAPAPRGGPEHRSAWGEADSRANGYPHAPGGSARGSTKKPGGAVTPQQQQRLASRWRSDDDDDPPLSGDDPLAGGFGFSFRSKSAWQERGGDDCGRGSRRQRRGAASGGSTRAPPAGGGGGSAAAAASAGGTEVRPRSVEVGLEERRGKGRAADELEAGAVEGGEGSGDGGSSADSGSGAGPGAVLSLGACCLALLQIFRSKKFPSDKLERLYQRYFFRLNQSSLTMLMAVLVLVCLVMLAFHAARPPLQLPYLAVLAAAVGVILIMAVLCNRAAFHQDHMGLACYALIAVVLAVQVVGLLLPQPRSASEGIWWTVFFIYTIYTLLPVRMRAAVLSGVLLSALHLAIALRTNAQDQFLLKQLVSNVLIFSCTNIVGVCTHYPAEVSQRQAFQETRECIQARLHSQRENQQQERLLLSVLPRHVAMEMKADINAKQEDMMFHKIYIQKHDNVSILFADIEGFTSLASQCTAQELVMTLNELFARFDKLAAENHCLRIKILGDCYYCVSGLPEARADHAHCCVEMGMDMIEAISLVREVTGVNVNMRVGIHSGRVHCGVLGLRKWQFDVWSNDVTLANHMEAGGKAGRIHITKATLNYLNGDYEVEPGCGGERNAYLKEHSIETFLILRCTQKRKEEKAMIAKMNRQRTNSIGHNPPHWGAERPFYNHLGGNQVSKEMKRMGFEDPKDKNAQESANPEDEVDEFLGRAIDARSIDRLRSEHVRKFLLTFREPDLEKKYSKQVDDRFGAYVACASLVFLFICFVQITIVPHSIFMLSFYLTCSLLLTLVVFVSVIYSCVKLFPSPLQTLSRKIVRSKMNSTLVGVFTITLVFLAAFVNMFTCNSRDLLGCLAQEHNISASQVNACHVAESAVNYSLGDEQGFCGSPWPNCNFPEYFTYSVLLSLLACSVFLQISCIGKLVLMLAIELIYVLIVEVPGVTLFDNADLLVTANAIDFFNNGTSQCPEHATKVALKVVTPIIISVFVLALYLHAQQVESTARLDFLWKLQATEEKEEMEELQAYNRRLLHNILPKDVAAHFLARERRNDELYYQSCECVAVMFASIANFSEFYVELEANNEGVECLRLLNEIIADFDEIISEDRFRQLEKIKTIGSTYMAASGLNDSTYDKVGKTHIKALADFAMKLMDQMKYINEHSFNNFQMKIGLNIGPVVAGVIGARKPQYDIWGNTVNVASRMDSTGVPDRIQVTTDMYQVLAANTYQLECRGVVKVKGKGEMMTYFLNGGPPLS
row,Structure (SMILES),IC50
1,CC(C)(C)OC(=O)N(CCn1cnc2c(N)ncnc21)CC(=O)O,> 200 µM
2,COC(=O)CCCCn1cnc2c(N)ncnc21,> 200 µM
3,CC(=O)N(CCn1cnc2c(N)ncnc21)CC(=O)O,> 200 µM
4,Nc1ncnc2c1ncn2CCCCCCC(=O)NO,> 200 µM
5,COC(=O)CN(C)CCn1cnc2c(N)ncnc21,> 200 µM
6,Nc1ncnc2c1ncn2CCNCC(=O)NO,> 200 µM
7,CN(CCn1cnc2c(N)ncnc21)CC(=O)NO,15.3 µM
8,CC(=O)N(CCn1cnc2c(N)ncnc21)CC(=O)NO,> 200 µM
9,COC(=O)CNCCCn1cnc2c(N)ncnc21,> 200 µM
10,CC(C)(C)OC(=O)N(CCCn1cnc2c(N)ncnc21)CC(=O)NO,> 200 µM
11,CCOC(=O)CCCCCCn1cnc2c(N)ncnc21,> 200 µM
12,CCOC(=O)CCCCCn1cnc2c(N)ncnc21,> 200 µM
13,CC(C)(C)OC(=O)N(CCCn1cnc2c(N)ncnc21)CC(=O)O,> 200 µM
14,COC(=O)CN(CCn1cnc2c(N)ncnc21)C(=O)OC(C)(C)C,> 200 µM
15,CC(C)(C)OC(=O)N(CCn1cnc2c(N)ncnc21)CC(=O)NO,> 200 µM
16,COC(=O)CNCCn1cnc2c(N)ncnc21,> 200 µM
17,Nc1ncnc2c1ncn2CCC(=O)NO,> 200 µM
18,COC(=O)CN(CCn1cnc2c(N)ncnc21)C(C)=O,> 200 µM
19,Nc1ncnc2c1ncn2CCCNCC(=O)NO,> 200 µM
20,Nc1ncnc2c1ncn2CCCCC(=O)NO,7.6 µM
21,Nc1ncnc2c1ncn2CCCCCC(=O)NO,35.4 µM

# Next, values leading:
row,IC50,Structure (SMILES)
1,> 200 µM,Nc1ncnc2c1ncn2CCCCC(=O)O
2,> 200 µM,Nc1ncnc2c1ncn2CCCCCC(=O)O
3,> 200 µM,Nc1ncnc2c1ncn2CCCCCCC(=O)O
4,140 µM,Nc1ncnc2c1ncn2CCCOCC(=O)O
5,> 200 µM,CCOC(=O)COCCCn1cnc2c(N)ncnc21
6,94 µM,Nc1ncnc2c1ncn2CCCOCC(=O)NO
7,> 200 µM,Nc1ncnc2c1ncn2CCCNCC(=O)O
8,> 200 µM,Nc1ncnc2c1ncn2CCNCC(=O)O
9,7.9 µM,Nc1ncnc2c1ncn2CCCC(=O)NO
